From PubChem BioAssay (NCI)
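Briefly, cells in 96-well plates were exposed to five compound concentrations for 48 h, and endpoints were estimated by linear interpolation. TGI marks complete inhibition of growth.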

Assays:
Assay in all cases: DTP human tumour cell line panel, 48 h
[1] = test system: KM12 colon
[2] = test system: PC-3 prostate
[3] = test system: HS 578T breast
[4] = test system: MCF7 breast
[5] = test system: SK-MEL-5 melanoma
[6] = test system: OVCAR-8 ovarian
[7] = test system: UACC-257 melanoma
[8] = test system: NCI-H460 lung
[9] = test system: SK-MEL-28 melanoma
[10] = test system: A498 renal
[11] = test system: UACC-62 melanoma
[12] = test system: HOP-62 NSCLC
[13] = test system: NCI-H226 lung
[14] = test system: DU-145 prostate
[15] = test system: MDA-MB-231 breast
[16] = test system: SR leukemia
[17] = test system: BT-549 breast
[18] = test system: OVCAR-5 ovarian
[19] = test system: HCC-2998 colon
[20] = test system: U251 CNS
[21] = test system: 786-0 renal
[22] = test system: LOX IMVI melanoma
[23] = test system: MALME-3M melanoma
[24] = test system: A549 NSCLC
[25] = test system: UO-31 renal
[26] = test system: EKVX NSCLC
[27] = test system: NCI-H522 lung
[28] = test system: MDA-MB-435
[29] = test system: IGROV1 ovarian
[30] = test system: SF-268 CNS
[31] = test system: HOP-92 NSCLC
[32] = test system: MDA-N
[33] = test system: CCRF-CEM leukemia
[34] = test system: CAKI-1 renal
[35] = test system: HT29 colon
[36] = test system: TK-10 renal
[37] = test system: SF-539 CNS
[38] = test system: OVCAR-4 ovarian
[39] = test system: SF-295 CNS
[40] = test system: NCI-H23 lung
[41] = test system: SNB-19 CNS
[42] = test system: MOLT-4 leukemia
[43] = test system: ACHN renal
[44] = test system: SN12C renal
[45] = test system: SNB-75 CNS
[46] = test system: RXF 393 renal
[47] = test system: HCT-116 colon
[48] = test system: COLO 205 colon
[49] = test system: SW-620 colon
[50] = test system: HCT-15 colon
[51] = test system: M14 melanoma
[52] = test system: SK-OV-3 ovarian
[53] = test system: OVCAR-3 ovarian
[54] = test system: T-47D breast
[55] = test system: NCI/ADR-RES ovarian
[56] = test system: HL-60(TB) leukemia
[57] = test system: RPMI-8226 leukemia
[58] = test system: SK-MEL-2 melanoma
[59] = test system: K-562 leukemia
[60] = test system: M19-MEL melanoma
[61] = test system: SNB-78 CNS
[62] = test system: DMS 273 small cell lung
[63] = test system: DMS 114 small cell lung
[64] = test system: LXFL 529 NSCLC
[65] = test system: KM20L2 colon

`Cc1c(Cl)nc(Cl)nc1Cl` showed a TGI [1] of 6.15 µM, a TGI [2] of 5.35 µM and a TGI [3] of 8.31 µM. It also gave a TGI [4] of 2.6 µM, a TGI [5] of 5.8 µM and a TGI [6] of 18.9 µM. For the same compound, the TGI [7] was 5.67 µM, the TGI [8] was 20.1 µM and the TGI [9] was 8.5 µM. For the same compound, the TGI [10] was 11.9 µM, the TGI [11] was 9.42 µM and the TGI [12] was 9.22 µM. The TGI [13] was 8.46 µM, the TGI [14] was 11.1 µM and the TGI [15] was 2.99 µM. It also gave a TGI [16] of 10.8 µM, a TGI [17] of 10.2 µM and a TGI [18] of 3.46 µM. The TGI [19] was 2.73 µM, the TGI [20] was 3.18 µM and the TGI [21] was 3.7 µM. It also gave a TGI [22] of 1.34 µM, a TGI [23] of 2.68 µM and a TGI [24] of 7.34 µM. It also gave a TGI [25] of 1.18 µM, a TGI [26] of 3.82 µM and a TGI [27] of 0.118 µM. For the same compound, the TGI [28] was 6.75 µM, the TGI [29] was 8.33 µM and the TGI [30] was 4.01 µM. It also gave a TGI [31] of 4.99 µM, a TGI [32] of 6.85 µM and a TGI [33] of 0.676 µM. For the same compound, the TGI [34] was 0.695 µM, the TGI [35] was 6.4 µM and the TGI [36] was 7.16 µM. It also gave a TGI [37] of 5.62 µM, a TGI [38] of 2.8 µM and a TGI [39] of 10.6 µM. For the same compound, the TGI [40] was 4.64 µM, the TGI [41] was 9.09 µM and the TGI [42] was 1.38 µM. The TGI [43] was 0.829 µM, the TGI [44] was 7.53 µM and the TGI [45] was 11.7 µM. It also gave a TGI [46] of 4.07 µM, a TGI [47] of 3.95 µM and a TGI [48] of 1.15 µM. The TGI [49] was 4.68 µM, the TGI [50] was 1.25 µM and the TGI [51] was 2.11 µM. For the same compound, the TGI [52] was 11.7 µM, the TGI [53] was 3.25 µM and the TGI [54] was 4.11 µM. For the same compound, the TGI [55] was 4.45 µM.

`Cn1ccc(C(=O)NCCN(CCNC(=O)c2ccn(C)c(=O)c2O)CCNC(=O)c2ccn(C)c(=O)c2O)c(O)c1=O` gave a TGI [1] greater than 100 µM, a TGI [2] greater than 100 µM and a TGI [3] greater than 100 µM. The TGI [4] was greater than 100 µM, the TGI [5] was greater than 100 µM and the TGI [6] was greater than 100 µM. For the same compound, the TGI [7] was greater than 100 µM, the TGI [8] was greater than 100 µM and the TGI [9] was greater than 100 µM. For the same compound, the TGI [10] was greater than 100 µM, the TGI [11] was greater than 100 µM and the TGI [12] was greater than 100 µM. The TGI [56] was greater than 100 µM, the TGI [13] was greater than 100 µM and the TGI [14] was greater than 100 µM. The TGI [15] was greater than 100 µM, the TGI [16] was greater than 100 µM and the TGI [57] was greater than 100 µM. For the same compound, the TGI [17] was greater than 100 µM, the TGI [18] was greater than 100 µM and the TGI [19] was greater than 100 µM. For the same compound, the TGI [20] was greater than 100 µM, the TGI [23] was greater than 100 µM and the TGI [24] was greater than 100 µM. It also gave a TGI [25] greater than 100 µM, a TGI [27] greater than 100 µM and a TGI [28] greater than 100 µM. It also gave a TGI [29] greater than 100 µM, a TGI [30] greater than 100 µM and a TGI [31] greater than 100 µM. It also gave a TGI [32] greater than 100 µM, a TGI [33] greater than 100 µM and a TGI [34] greater than 100 µM. It also gave a TGI [35] greater than 100 µM, a TGI [36] greater than 100 µM and a TGI [37] greater than 100 µM. It also gave a TGI [38] greater than 100 µM, a TGI [39] greater than 100 µM and a TGI [58] greater than 100 µM. It also gave a TGI [40] greater than 100 µM, a TGI [41] greater than 100 µM and a TGI [43] greater than 100 µM. The TGI [44] was greater than 100 µM, the TGI [59] was greater than 100 µM and the TGI [45] was greater than 100 µM. The TGI [46] was greater than 100 µM, the TGI [48] was greater than 100 µM and the TGI [49] was greater than 100 µM. It also gave a TGI [50] greater than 100 µM, a TGI [51] greater than 100 µM and a TGI [52] greater than 100 µM. The TGI [53] was greater than 100 µM, the TGI [54] was greater than 100 µM and the TGI [55] was greater than 100 µM.

`Cc1ccc(C(=O)Cn2c(C(=O)/C=C/c3cccs3)nc3ccccc32)cc1` was tested, and the TGI [1] was greater than 100 µM, the TGI [2] was greater than 100 µM and the TGI [3] was 72.6 µM. For the same compound, the TGI [4] was greater than 100 µM, the TGI [5] was greater than 100 µM and the TGI [7] was greater than 100 µM. For the same compound, the TGI [8] was greater than 100 µM, the TGI [9] was greater than 100 µM and the TGI [10] was greater than 100 µM. The TGI [11] was greater than 100 µM, the TGI [12] was greater than 100 µM and the TGI [56] was greater than 100 µM. For the same compound, the TGI [13] was greater than 100 µM, the TGI [14] was greater than 100 µM and the TGI [15] was greater than 100 µM. It also gave a TGI [16] of 50.4 µM, a TGI [57] greater than 100 µM and a TGI [17] greater than 100 µM. It also gave a TGI [18] greater than 100 µM, a TGI [19] of 43.7 µM and a TGI [20] greater than 100 µM. It also gave a TGI [21] greater than 100 µM, a TGI [22] greater than 100 µM and a TGI [23] greater than 100 µM. For the same compound, the TGI [24] was greater than 100 µM, the TGI [25] was greater than 100 µM and the TGI [28] was greater than 100 µM. It also gave a TGI [29] greater than 100 µM, a TGI [30] greater than 100 µM and a TGI [31] greater than 100 µM. For the same compound, the TGI [32] was greater than 100 µM, the TGI [33] was 38.5 µM and the TGI [35] was greater than 100 µM. For the same compound, the TGI [36] was greater than 100 µM, the TGI [37] was greater than 100 µM and the TGI [38] was greater than 100 µM. For the same compound, the TGI [58] was 48.3 µM, the TGI [40] was greater than 100 µM and the TGI [41] was greater than 100 µM. It also gave a TGI [43] greater than 100 µM, a TGI [44] greater than 100 µM and a TGI [59] greater than 100 µM. It also gave a TGI [45] greater than 100 µM, a TGI [46] greater than 100 µM and a TGI [47] greater than 100 µM. The TGI [48] was greater than 100 µM, the TGI [49] was greater than 100 µM and the TGI [50] was greater than 100 µM. For the same compound, the TGI [51] was greater than 100 µM, the TGI [52] was greater than 100 µM and the TGI [53] was greater than 100 µM. It also gave a TGI [54] greater than 100 µM and a TGI [55] greater than 100 µM.

In the case of `COC(=O)c1ccccc1N1C(=O)Cc2ccccc2C1=O`, the TGI [1] is reported as greater than 100 µM, the TGI [60] is reported as greater than 100 µM and the TGI [5] is reported as greater than 100 µM. It also gave a TGI [6] greater than 100 µM, a TGI [7] greater than 100 µM and a TGI [9] greater than 100 µM. It also gave a TGI [11] greater than 100 µM, a TGI [61] greater than 100 µM and a TGI [13] greater than 100 µM. For the same compound, the TGI [16] was greater than 100 µM, the TGI [57] was greater than 100 µM and the TGI [18] was greater than 100 µM. It also gave a TGI [19] greater than 100 µM, a TGI [20] greater than 100 µM and a TGI [21] greater than 100 µM. For the same compound, the TGI [23] was greater than 100 µM, the TGI [24] was greater than 100 µM and the TGI [25] was greater than 100 µM. It also gave a TGI [26] greater than 100 µM, a TGI [29] greater than 100 µM and a TGI [30] greater than 100 µM. It also gave a TGI [62] greater than 100 µM, a TGI [35] greater than 100 µM and a TGI [36] greater than 100 µM. It also gave a TGI [37] greater than 100 µM, a TGI [39] greater than 100 µM and a TGI [58] greater than 100 µM. It also gave a TGI [63] greater than 100 µM, a TGI [40] greater than 100 µM and a TGI [41] greater than 100 µM. The TGI [42] was greater than 100 µM, the TGI [43] was greater than 100 µM and the TGI [44] was greater than 100 µM. It also gave a TGI [59] greater than 100 µM, a TGI [45] of 74 µM and a TGI [46] greater than 100 µM. The TGI [64] was greater than 100 µM, the TGI [65] was greater than 100 µM and the TGI [48] was greater than 100 µM. The TGI [49] was greater than 100 µM, the TGI [50] was greater than 100 µM and the TGI [52] was greater than 100 µM. For the same compound, the TGI [53] was greater than 100 µM.
